{"source": "patent US7781486B2", "about": "“Punctual stimulation therapy” (priority 2003, dated 2010)", "tested_on": "pain (VAS scale) in patients", "test": "Punctual stimulation on both ears with simultaneous intravenous infusion of D-phenylalanine solution; pain reduction in patient case reports", "assay_type": "in vivo, human", "text": "Very good relief of existing pain can be achieved by means of punctual stimulation, in which electrical current is supplied by way of needle electrodes stuck into the skin, whereby these needle electrodes are placed, in particular, at specifically sensitive points of an outer ear, in the case of the predominant number of patients treated with such stimulation.\nOn each of three consecutive days, punctual stimulation on both ears, with simultaneous intravenous infusion of a substance that inhibits the enzymatic decomposition of endogenous opioid neuropeptides, was carried out. Afterwards, punctual stimulation was carried out without infusion for the four subsequent days, by means of a small device worn by the patient, to supply power to needle electrodes that are stuck into the skin on one ear. This sequence was repeated several times, in coordination with the patient's need for pain reduction. In the case of punctual stimulations carried out with simultaneous infusion, electrical current was supplied to needle electrodes that were stuck into sensitive points of both ears. A sterile aqueous solution containing 20 g/L D-phenylalanine was administered as the infusion, whereby a total amount of D-phenylalanine of 200 to 300 mg/kilogram of body weight was administered during every treatment procedure. On the first days of the three-day sequences, in each instance, the infusion was started at least 10 min before the punctual stimulation. The flow velocity of the infusion was selected in accordance with an infusion period of 2.5 to 5 h.\nAdmission to clinic. Punctual stimulation carried out without infusion, by means of power supply to needle electrodes that are stuck into one ear, over a period of four days. Pain reduction achieved in this manner. Subsequently, punctual stimulation by means of power supply to needle electrodes that are stuck in both ears, and simultaneous intravenous infusion of an aqueous solution containing 15 g/L D-phenylalanine, in an amount of 250 mg/kg of body weight. An anti-emetic was also added to the solution. Duration of infusion about 3 h. During the course of this treatment, pain reduction all the way to freedom from pain (VAS-0). After 8 days, discharge from the clinic—free of symptoms, no vomiting, no nausea, no medication. At discharge, application of a device for punctual stimulation on one ear, without infusion, as mentioned above, for four days. Freedom from symptoms remains maintained during this stimulation period. On the following days, slight pain in the abdominal region, in individual instances. Three days after completion of the prior stimulation, again application of a device for a stimulation lasting four days—immediately clear relief. After this stimulation, again increase in pain, but tolerable without medication. After another three days, again application of such a device—free of symptoms. After removal of the device, again slight increase in pain, whereby the number of pain attacks and their intensity has decreased in comparison with previously. After several days, again a device applied for stimulation on one ear, lasting for four days—free of symptoms. After removal of the device, slow increase in pain to VAS-3-4. Ten days after removal of the device, again punctual stimulation on two ears, with intravenous infusion, as explained above. Pain reduction to VAS-0. […] Subsequently slow increase in pain up to maximum VAS-4. Two weeks after punctual stimulation on both ears, again application of a device for four days of stimulation on one ear without infusion—free of symptoms during stimulation. Another two weeks later, again application of such a device—free of symptoms during stimulation. Afterwards, more severe pain again in paraumbilical region, in individual instances. Again, application of a device as mentioned—free from symptoms during the stimulation. Later, sudden increase in pain. Therefore one week later, again punctual stimulation on both ears, with infusion. VAS-0. […]", "data": [{"molecule": "N[C@H](Cc1ccccc1)C(=O)O", "note": "[D-phenylalanine]", "values": [{"measurement": "dulling of sensory system", "setting": "after first treatment, 20 g/L, 300 mg/kg i.v.", "result": "without dulling of the sensory system"}, {"measurement": "duration of complete freedom from pain after treatment", "setting": "after second treatment with infusion", "result": 48, "unit": "h"}, {"measurement": "maximum pain (VAS) on slow increase after treatment", "setting": "after the 48 h following second treatment with infusion", "result": "≤ 4", "unit": "VAS"}, {"measurement": "pain (VAS) on increase after the pain-free period", "setting": "after three pain-free days", "result": 4, "unit": "VAS"}, {"measurement": "pain after treatment", "setting": "ankle pain VAS-10, back pain, first treatment: 15 g/L, 250 mg/kg i.v., 3 h, stimulation on both ears", "result": "complete freedom from pain"}, {"measurement": "pain reduction during each treatment procedure", "setting": "carcinoma with generalized metastases, 20 g/L D-phenylalanine i.v., 200 to 300 mg/kg, infusion 2.5 to 5 h, with punctual stimulation on both ears, three consecutive days", "result": "pain reduction, which went all the way to freedom from pain"}, {"measurement": "pain (VAS) during treatment", "setting": "lumbar ischialgia, from VAS 9.5, 20 g/L, 300 mg/kg i.v., 3 h, stimulation on both ears", "result": 0, "unit": "VAS"}, {"measurement": "pain after treatment", "setting": "second treatment on both ears with infusion", "result": "Complete freedom from pain"}, {"measurement": "pain after treatment", "setting": "second treatment with infusion, from VAS-6", "result": "complete freedom from pain achieved"}]}]}
